Reference: the CheMixHub ionic liquid set
± gives the uncertainty stated by the source.

Assay: xn = mol fraction of the nth substance listed

CC(=O)Nc1ccc(O)cc1 + O + CCCC[n+]1ccn(C)c1.[Br-]
101 kPa, frequency 0.0003 MHz
Details	electrical conductivity [S/m]
293.15 K, x1 = 0.0005475, x3 = 1.14e-05	0.0067 ± 0.0039
293.15 K, x1 = 0.0005475, x3 = 1.628e-05	0.0094 ± 0.004
293.15 K, x1 = 0.001082, x3 = 4.9e-06	0.003 ± 0.0038
298.15 K, x1 = 0.0005475, x3 = 9.05e-06	0.0056 ± 0.004
298.15 K, x1 = 0.0005475, x3 = 1.447e-05	0.0085 ± 0.004
298.15 K, x1 = 0.001082, x3 = 5.63e-06	0.0034 ± 0.0039
298.15 K, x1 = 0.001082, x3 = 1.162e-05	0.0067 ± 0.0038
298.15 K, x1 = 0.001082, x3 = 1.635e-05	0.0092 ± 0.0039
303.15 K, x1 = 0.0005475, x3 = 5.43e-06	0.0036 ± 0.0041
303.15 K, x1 = 0.0005475, x3 = 1.158e-05	0.0071 ± 0.0037
303.15 K, x1 = 0.001082, x3 = 5.09e-06	0.0032 ± 0.0039
303.15 K, x1 = 0.001082, x3 = 1.162e-05	0.0067 ± 0.0037
303.15 K, x1 = 0.001082, x3 = 1.617e-05	0.0091 ± 0.0039
308.15 K, x1 = 0.0005475, x3 = 2.71e-06	0.0025 ± 0.0049
308.15 K, x1 = 0.0005475, x3 = 9.41e-06	0.0073 ± 0.0045
308.15 K, x1 = 0.001082, x3 = 5.63e-06	0.0038 ± 0.0042
308.15 K, x1 = 0.001082, x3 = 1.199e-05	0.0075 ± 0.0038

CO + C[N+](C)(CCCS(=O)(=O)O)C1CCCCC1.Cc1ccc(S(=O)(=O)[O-])cc1
101 kPa, x2 = 0
Details	viscosity [mPa·s]
303.15 K	0.5044
308.15 K	0.4775
313.15 K	0.4515
318.15 K	0.4244
323.15 K	0.4033
328.15 K	0.3883

CCCCCC[n+]1ccccc1.N#C[N-]C#N + O
100 kPa
Details	electrical conductivity [S/m]	viscosity [mPa·s]
298.15 K, x1 = 0.9308	–	50.4 ± 1
298.15 K, x1 = 0.9582	0.494 ± 0.014	–
298.15 K, x1 = 0.9762	0.477 ± 0.013	–
298.15 K, x2 = 0.01463	–	56.3 ± 1.2
303.15 K, x1 = 0.9663	–	43.33 ± 0.95
308.15 K, x1 = 0.924	0.796 ± 0.02	–
318.15 K, x1 = 0.9146	–	22.52 ± 0.49
318.15 K, x1 = 0.9409	1.09 ± 0.026	–
318.15 K, x1 = 0.9663	–	24.43 ± 0.53
328.15 K, x1 = 0.9146	–	15.96 ± 0.35
328.15 K, x1 = 0.924	1.47 ± 0.033	–
328.15 K, x1 = 0.9487	–	16.85 ± 0.37
328.15 K, x1 = 0.9762	1.35 ± 0.031	–
338.15 K, x1 = 0.9075	1.94 ± 0.042	–
338.15 K, x1 = 0.9146	–	12.16 ± 0.27
338.15 K, x1 = 0.9409	1.85 ± 0.041	–
338.15 K, x2 = 0.01463	–	13.8 ± 0.3

O=C[O-].OCC[NH2+]CCO + O
100 kPa
Details	viscosity [mPa·s]
293.15 K, x1 = 0.075	3.25 ± 0.68
293.15 K, x1 = 0.3185	36.2 ± 7.3
293.15 K, x1 = 1	471 ± 96
303.15 K, x1 = 0.0292	1.34 ± 0.28
303.15 K, x1 = 0.7987	172 ± 35
313.15 K, x1 = 0.075	1.99 ± 0.41
333.15 K, x1 = 0.3185	8.4 ± 1.7
333.15 K, x1 = 0.7987	40.4 ± 8.1
343.15 K, x1 = 0.5932	15.3 ± 3.1
343.15 K, x1 = 1	35.9 ± 7.2

CC(=O)[O-].CCCCC[N+](CCCCC)(CCCCC)CCCCC + CCCCCCCCCCCCOS(=O)(=O)[O-].[Na+] + O
viscosity [mPa·s], 100 kPa
Details	x2 = 1.81e-06, x1 = 0.0001802	x2 = 3.62e-06, x1 = 0.0001802	x2 = 5.42e-06, x1 = 0.0001802	x2 = 7.23e-06, x1 = 0.0001802	x2 = 9.04e-06, x1 = 0.0001802	x2 = 1.085e-05, x1 = 0.0001802	x2 = 1.266e-05, x1 = 0.0001802	x2 = 1.446e-05, x1 = 0.0001802	x2 = 1.627e-05, x1 = 0.0001802	x2 = 1.808e-05, x1 = 0.0001802
293.15 K	1.002 ± 0.029	1.003 ± 0.029	1.005 ± 0.029	1.005 ± 0.029	1.007 ± 0.029	1.007 ± 0.029	1.007 ± 0.029	1.007 ± 0.029	1.007 ± 0.029	1.008 ± 0.029
298.15 K	0.89 ± 0.028	0.893 ± 0.028	0.894 ± 0.028	0.896 ± 0.028	0.898 ± 0.028	0.9 ± 0.028	0.902 ± 0.028	0.902 ± 0.028	0.904 ± 0.028	0.904 ± 0.028
303.15 K	0.784 ± 0.028	0.786 ± 0.028	0.789 ± 0.028	0.792 ± 0.028	0.793 ± 0.028	0.796 ± 0.028	0.796 ± 0.028	0.796 ± 0.028	0.798 ± 0.028	0.796 ± 0.028
308.15 K	0.701 ± 0.027	0.703 ± 0.027	0.704 ± 0.027	0.706 ± 0.027	0.707 ± 0.027	0.707 ± 0.027	0.708 ± 0.027	0.708 ± 0.027	0.709 ± 0.027	0.709 ± 0.027
313.15 K	0.636 ± 0.027	0.638 ± 0.027	0.641 ± 0.027	0.643 ± 0.027	0.645 ± 0.027	0.646 ± 0.027	0.646 ± 0.027	0.647 ± 0.027	0.648 ± 0.027	0.648 ± 0.027
318.15 K	0.587 ± 0.027	0.587 ± 0.027	0.589 ± 0.027	0.59 ± 0.027	0.591 ± 0.027	0.593 ± 0.027	0.593 ± 0.027	0.597 ± 0.027	0.598 ± 0.027	0.599 ± 0.027

CO + C[N+](C)(C)CCO.NCC(=O)[O-]
100 kPa, x2 = 0
Details	viscosity [mPa·s]
298.15 K	0.58 ± 0.2
303.15 K	0.55 ± 0.2
308.15 K	0.51 ± 0.2
313.15 K	0.47 ± 0.2
318.15 K	0.44 ± 0.2
323.15 K	0.41 ± 0.2

CO + CS(=O)(=O)[O-].C[N+](C)(CCO)CCO
101 kPa, x2 = 0
Details	viscosity [mPa·s]
298.15 K	0.576 ± 0.038
303.15 K	0.539 ± 0.035
308.15 K	0.506 ± 0.033
313.15 K	0.477 ± 0.031
318.15 K	0.453 ± 0.03
323.15 K	0.43 ± 0.03

OCCCCCCO + C[N+](C)(C)Cc1ccccc1.[Cl-]
101.13 kPa, x2 = 0.5
Details	electrical conductivity [S/m]	viscosity [mPa·s]
298 K	0.084 ± 0.017	–
308 K	–	73 ± 14

COCCCC[n+]1ccn(C)c1.NCC(=O)[O-] + CS(C)=O
100 kPa
Details	viscosity [mPa·s]
288.15 K, x1 = 0.4986	49.18 ± 0.65
293.15 K, x1 = 0.4986	37.24 ± 0.51
293.15 K, x1 = 0.6006	51.07 ± 0.57
293.15 K, x1 = 0.7941	84.3 ± 1.8
298.15 K, x1 = 0.7941	65.57 ± 0.92
298.15 K, x1 = 1	97.2 ± 2.5
303.15 K, x1 = 0.1009	4.18 ± 0.05
303.15 K, x1 = 0.299	10.12 ± 0.12
308.15 K, x1 = 0.1009	3.59 ± 0.04
308.15 K, x1 = 0.299	8.41 ± 0.09
308.15 K, x1 = 0.701	34.9 ± 0.4
318.15 K, x1 = 0.1009	2.72 ± 0.03

CCCCCCCCCC(=O)[O-].CCCCCCCCCCCCCC[P+](CCCCCC)(CCCCCC)CCCCCC + O
Details	viscosity [mPa·s]
358.15 K, 100 kPa, x2 = 0.872	9.345 ± 0.073

CO + CCCC[N+]1(C)CCCC1.O=S(=O)([N-]S(=O)(=O)C(F)(F)F)C(F)(F)F
Details	viscosity [mPa·s]
293.15 K, 101 kPa, x2 = 0	0.74 ± 0.03
